From patent US20240343761A1, “APELINERGIC MACROCYCLES AND USES THEREOF” (priority 2021, published 2024)
Read-outs that look alike come from different tables or passages of the source. Values belong to the compound of their own block, whether it stands above or below them. Bridge positions count the residues as written; N and C are the ends. Square brackets hold non-standard residues; d marks the D form. Peptide text beside a SMILES is read from it. Phe(4-Br) = N[C@@H](Cc1ccc(Br)cc1)C(=O)O; pGlu = O=C1CC[C@@H](C(=O)O)N1; Nle = CCCC[C@H](N)C(=O)O

Tests used:
[1] = Rat plasma stability (half-life in vitro); format: in vitro ADME; details: male, Sprague-Dawley, rat, plasma
Description: Plasma was obtained from male Sprague-Dawley rats by collecting blood in heparin tube and centrifugating at 13,000 rpm to remove blood cells. The isolated plasma was stored at −80° C. and thawed right before the test. In 96-well plate, 6 μL of peptide solution at 1 mM was incubated with 27 μL of plasma at 37° C. in an oven equipped with orbital shaker. Tightly fitted caps were used to seal the wells to avoid water evaporation during incubation. […] A 96-well UPLC plate was put at the bottom to collect the samples. Both plates were centrifuged at 500 g for 10 min at 4° C. to accelerate the filtration. […] The quantity of remaining peptide was plotted into an exponential one-phase decay curve using GraphPad Prism 8 which allowed to calculate peptide half-life. The results were presented as mean±SEM of at least 3 independent experiments, each done in simplicate.
The percentage of remaining analogue was calculated by doing the ratio between AU of compound and AUC of internal standard. Half-lives were extrapolated from curves.

hAPJ receptor [2] = biological target: T1, hAPJ receptor (Homo sapiens, UniProt P35414); experiment: BRET-based Gαi1 activation assay in HEK293 cells; format: cell-based; details: for Emax: HEK293, Table V, read-out: Gαi1 Emax
T1 construct: expressed in transfected cells; host or cells: HEK293, transient transfection with PEI
T1 sequence (P35414 1-380): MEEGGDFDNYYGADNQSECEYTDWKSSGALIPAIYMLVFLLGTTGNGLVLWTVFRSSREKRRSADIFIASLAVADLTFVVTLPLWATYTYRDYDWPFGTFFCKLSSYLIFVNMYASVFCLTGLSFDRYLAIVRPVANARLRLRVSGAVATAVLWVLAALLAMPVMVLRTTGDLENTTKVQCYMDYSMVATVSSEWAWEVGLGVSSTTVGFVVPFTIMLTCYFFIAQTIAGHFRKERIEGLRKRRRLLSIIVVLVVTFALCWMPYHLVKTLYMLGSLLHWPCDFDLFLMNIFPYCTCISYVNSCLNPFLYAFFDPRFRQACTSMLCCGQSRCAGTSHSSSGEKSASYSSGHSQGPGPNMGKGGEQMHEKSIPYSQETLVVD
Description: (§1) HEK293 cells were cultivated in high glucose DMEM medium having 10% FBS, 100 U/mL penicillin/streptomycin, 2 mM glutamine, and 20 mM HEPES at 37° C. in T175 flasks under humidified chamber at 5% CO2. […] Cells were then washed with phosphate-buffered saline (PBS) and 90 μL Hanks' balanced salt solution was added in each well. Then, cells were stimulated with analogs at concentrations ranging from 10^−5 M to 10^−11 M for 5 min at 37° C. (Gαi1) or for 30 min at room temperature (β-arrestin2). After stimulation, 5 μM of coelanterazine 400A was added to each well and the plate was read using the BRET^2 filter set of a GeniosPro plate reader (Tecan, Austria). The BRET ratio was determined as GFP10em/RlucIIem. Data were plotted and EC50 values were determined using GraphPad Prism 8. Each data point represents the mean±SEM of at least three different experiments each done in triplicate.

hAPJ receptor [3] = biological target: T1, hAPJ receptor; experiment: BRET-based β-arrestin2 recruitment assay in HEK293 cells; format: cell-based; details: for Emax: HEK293, read-out: ß-arr2 Emax
Description: as §1

human APJ (hAPJ) = biological target: T2, human APJ (hAPJ) (Homo sapiens, UniProt P35414); experiment: Competitive radioligand binding ([125I][Nle75,Tyr77][Pyr1]-Ape13) on membranes of HEK293 cells stably expressing human APJ
T2 construct: expressed in transfected cells; cell membranes
T2 sequence (P35414 1-380): T1 sequence (P35414 1-380)
Description: HEK293 cells stably expressing YFP-tagged human APJ were cultured in DMEM medium supplemented with 10% FBS, at 37° C. under a humid atmosphere maintaining 5% CO2. Antibiotic G418 (400 μg/mL) was added to maintain a selection pressure for APJ-expressing cells while penicillin/streptomycin (0.1%) were used to prevent bacterial contamination.
Binding experiments were performed on cell membranes of HEK293 stably expressing the YFP-tagged human APJ receptor. Cells were frozen at −80° C. for storage and quickly thawed right before the experiments (1 min at 37° C.). […] The precipitate (cell membranes) was suspended in binding buffer (50 mM Tris-HCl, 0.2% BSA, pH 7.4). Binding assays were run in 96-well plates. […] (820 Ci/mmol)^3 and test ligand with a range of concentrations from 10^−1 to 10^−11 M in a total volume of 200 μL for 1 h at room temperature.
The incubation mixtures were filtered through a glass fiber filter (Millipore, pre-absorbed of PEI 0.5% for 2 h at 4° C.) to remove unbound ligands, and the filter membranes were washed three times with 170 μL cold binding buffer (4° C.). The γ emission was measured using a 1470 Wizard γ-counter from PerkinElmer (Waltham, USA) (80% efficiency).

[4] = Table I, rat plasma, 37° C., up to 24 h, read-out: Half-life in vitro (converted)
[5] = Table I, rat plasma, 37° C., up to 24 h

Compound: CCCC[C@@H]1NC(=O)[C@@H](N)CC=CC[C@@H](C(=O)N[C@@H](CCCCN)C(=O)NCC(=O)N2CCC[C@H]2C(=O)N[C@@H](CCCC)C(=O)N2CCC[C@H]2C(=O)N[C@@H](Cc2ccccc2)C(=O)O)NC(=O)[C@H](CO)NC(=O)[C@H](CC(C)C)NC1=O [Compound 24, NH2-c[X-Nle-L-S-X]c-K-G-P-Nle-P-F]
half-life at […] [1, 4]: 3.8 ± 0.5 h

Compound: CCCC[C@H](NC(=O)[C@@H]1CCCN1C(=O)CNC(=O)[C@H](CCCCN)NC(=O)[C@@H]1CC(=O)NC[C@H](NC(=O)[C@H](CCCNC(=N)N)NC(=O)[C@@H]2CCC(=O)N2)C(=O)N[C@@H](CCCNC(=N)N)C(=O)N[C@@H](CC(C)C)C(=O)N[C@@H](CO)C(=O)N1)C(=O)N1CCC[C@H]1C(=O)N[C@@H](Cc1ccccc1)C(=O)O [Compound 14, Pyr-R-c[Dap-R-L-S-Asp]c-K-G-P-Nle-P-F]
half-life at 0.182 mM [1, 5]: 0.2 ± 0.1 h

Compound: CC(C)C[C@@H]1NC(=O)[C@H](CCCNC(=N)N)NC(=O)[C@@H](N)CC=CC[C@@H](C(=O)N[C@@H](CCCCN)C(=O)NCC(=O)N2CCC[C@H]2C(=O)N[C@@H](Cc2ccc(OCc3ccccc3)c(C3CCCC3)c2)C(=O)O)NC(=O)[C@H](CO)NC1=O [Compound 38, NH2-c[X-R-L-S-X]c-K-G-P-cypTyr(OBn)]
half-life at 0.182 mM [1, 5]: 11.3 ± 1 h

Compound: CCCC[C@H](NC(=O)[C@@H]1CCCN1C(=O)CNC(=O)[C@H](CCCCN)NC(=O)[C@@H]1CC(=O)NCCCC[C@H](NC(=O)[C@H](CCCNC(=N)N)NC(=O)[C@@H]2CCC(=O)N2)C(=O)N[C@@H](CCCNC(=N)N)C(=O)N[C@@H](CC(C)C)C(=O)N[C@@H](CO)C(=O)N1)C(=O)N1CCC[C@H]1C(=O)N[C@@H](Cc1ccccc1)C(=O)O [Compound 17, Pyr-R-c[Lys-R-L-S-Asp]c-K-G-P-Nle-P-F] ([pGlu]RKRLSDKGP[Nle]PF-OH; lactam 3-7)
half-life at 0.182 mM [1, 5]: 0.1 h

Compound: CCCC[C@H](NC(=O)[C@@H]1CCC(=O)NCCCC[C@H](N)C(=O)N[C@@H](CCCNC(=N)N)C(=O)N[C@@H](CCCNC(=N)N)C(=O)N1)C(=O)N[C@H]1CSSC[C@@H](C(=O)N[C@@H](CCCNC(=N)N)C(=O)N[C@H](C(=O)N2CCC[C@H]2C(=O)N[C@@H](Cc2ccccc2)C(=O)N2CCC[C@H]2C(=O)O)C(C)C)NC(=O)[C@H](Cc2c[nH]cn2)NC(=O)[C@H](CC(C)C)NC1=O [Compound 79, c[K-R-R-E]-Nle-c[C-L-H-C]-R-V-P-F-P] (H-KRRE[Nle]CLHCRVPFP-OH; lactam 1-4; disulfide 6-9)
half-life at […] ([1]; Table III, rat plasma, read-out: Half-life in vitro (converted)): > 17 h
EC50 (hAPJ receptor [2]): 4 ± 0.8 nM
EC50 (hAPJ receptor [3]): 51 ± 3 nM

Compound: CC(C)C[C@@H]1NC(=O)[C@H](CCCNC(=N)N)NC(=O)[C@@H](N)CC=CC[C@@H](C(=O)N[C@@H](CCCCN)C(=O)NCC(=O)N2CCC[C@H]2C(=O)N[C@@H](Cc2cccc3ccccc23)C(=O)O)NC(=O)[C@H](CO)NC1=O [Compound 35, NH2-c[X-R-L-S-X]c-K-G-P-1Nal]
half-life at 0.182 mM [1, 5]: 0.3 ± 0.1 h

Compound: CC(C)C[C@@H]1NC(=O)[C@@H]2CCCN2C(=O)[C@@H](NC(=O)[C@H](CO)NC(=O)[C@H](CCCNC(=N)N)NC(=O)[C@H](CCCNC(=N)N)NC(=O)[C@@H]2CCC(=O)N2)CCC(=O)NCCCC[C@@H](C(=O)N[C@@H](CCCNC(=N)N)C(=O)N[C@H](C(=O)N2CCC[C@H]2C(=O)N[C@@H](Cc2ccc(Br)cc2)C(=O)N2CCC[C@H]2C(=O)O)C(C)C)NC(=O)[C@H](Cc2c[nH]cn2)NC1=O [Compound 92, Pyr-R-R-S-[E-P-L-H-K]-R-V-P-4BrF-P] ([pGlu]RRSEPLHKRVP[Phe(4-Br)]P-OH; lactam 5-9)
EC50 (hAPJ receptor [2]): 16 ± 3 nM
Ki (human APJ (hAPJ); Binding Ki): 15 ± 2 nM
EC50 (hAPJ receptor [3]): 439 ± 91 nM

half-life at […] ([1]; t1/2 in rat plasma): 2 to 5 h
Emax (hAPJ receptor [2]): 101%
Emax (hAPJ receptor [3]; Table V): 98%
Compound: CCCC[C@H](NC(=O)[C@@H]1CCCN1C(=O)CNC(=O)[C@H](CCCCN)NC(=O)[C@@H]1CC=CC[C@H](NC(=O)[C@H](CCCNC(=N)N)NC(=O)[C@@H]2CCC(=O)N2)C(=O)N[C@@H](CCCNC(=N)N)C(=O)N[C@@H](CC(C)C)C(=O)N[C@@H](CO)C(=O)N1)C(=O)N1CCC[C@H]1C(=O)N[C@@H](Cc1ccccc1)C(=O)O [Compound 97, Pyr-R-c[X-R-L-S-X]c-K-G-P-Nle-P-F, reference compound]

Compound: CCCC[C@H](NC(=O)[C@@H]1CCCN1C(=O)CNC(=O)[C@H](CCCCN)NC(=O)[C@@H]1CC=CCCC(=O)N[C@@H](CCCNC(=N)N)C(=O)N[C@@H](CC(C)C)C(=O)N[C@@H](CO)C(=O)N1)C(=O)N1CCC[C@H]1C(=O)N[C@@H](Cc1ccccc1)C(=O)O [Compound 22, Ø-c[X-R-L-S-X]c-K-G-P-Nle-P-F]
half-life at […] [1, 4]: 2 ± 0.2 h

Compound: CCCC[C@H](NC(=O)[C@@H]1CCCN1C(=O)CNC(=O)[C@H](CCCCN)NC(=O)[C@@H]1Cc2cncn2CC=CC[C@H](N)C(=O)N[C@@H](CCCNC(=N)N)C(=O)N[C@@H](CC(C)C)C(=O)N[C@@H](CO)C(=O)N1)C(=O)N1CCC[C@H]1C(=O)N[C@@H](Cc1ccccc1)C(=O)O [Compound 25, NH2-c[X-R-L-S-Alh]c-K-G-P-Nle-P-F]
half-life at 0.182 mM [1, 5]: 2 ± 0.3 h

Compound: CC(C)C[C@@H]1NC(=O)[C@H](CCCNC(=N)N)NC(=O)[C@@H](N)CC=CC[C@@H](C(=O)N[C@@H](CCCCN)C(=O)NCC(=O)N2CCC[C@H]2C(=O)N[C@@H](Cc2ccc3ccccc3c2)C(=O)O)NC(=O)[C@H](CO)NC1=O [Compound 36, NH2-c[X-R-L-S-X]c-K-G-P-2Nal]
half-life at 0.182 mM [1, 5]: 0.4 ± 0.1 h

Compound: CC(=O)N[C@@H](CCCCN)C(=O)N[C@@H](Cc1ccccc1)C(=O)N[C@@H](CCCNC(=N)N)C(=O)N[C@@H](CCCNC(=N)N)C(=O)N[C@@H](CCC(N)=O)C(=O)N[C@@H](CCCNC(=N)N)C(=O)N1CCC[C@H]1C(=O)N[C@@H](CCCNC(=N)N)C(=O)N[C@@H](CC(C)C)C(=O)N[C@H]1CCC(=O)NCCCC[C@@H](C(=O)N2CCC[C@H]2C(=O)N[C@@H](C)C(=O)N2CCC[C@H]2C(=O)N[C@@H](Cc2ccccc2)C(=O)O)NC(=O)[C@H](C)NC(=O)[C@H](Cc2c[nH]cn2)NC1=O [Compound 62, Ac-K-F-R-R-Q-R-P-R-L-[E-H-A-K]-P-A-P-F] (Ac-KFRRQRPRLEHAKPAPF-OH; lactam 10-13)
Ki (human APJ (hAPJ); Ki binding): 11 ± 7 nM
EC50 (hAPJ receptor [3]): 1260 nM

Compound: CC(C)C[C@@H]1NC(=O)[C@H](CCCNC(=N)N)NC(=O)[C@@H](N)CC=CC[C@@H](C(=O)N[C@@H](CCCCN)C(=O)NCC(=O)N2CCC[C@H]2C(=O)N[C@@H](Cc2ccc(OCc3ccccc3)cc2)C(=O)O)NC(=O)[C@H](CO)NC1=O [Compound 37, NH2-c[X-R-L-S-X]c-K-G-P-TyrOBn]
half-life at 0.182 mM [1, 5]: 0.5 ± 0.1 h

Compound: CCCC[C@H](NC(=O)[C@@H]1CCCN1C(=O)CNC(=O)[C@H](CCCCN)NC(=O)[C@@H]1CCCC[C@H](NC(=O)[C@H](CCCNC(=N)N)NC(=O)[C@@H]2CCC(=O)N2)C(=O)N[C@@H](CCCNC(=N)N)C(=O)N[C@@H](CC(C)C)C(=O)N[C@@H](CO)C(=O)N1)C(=O)N1CCC[C@H]1C(=O)N[C@@H](Cc1ccccc1)C(=O)O [Compound 13, Pyr-R-c*[X-R-L-S-X]c-K-G-P-Nle-P-F]
Emax (hAPJ receptor [2]): 102%
Ki (human APJ (hAPJ); Table I, mean ± SEM, read-out: Ki binding): 4.3 ± 0.3 nM
Ki (human APJ (hAPJ); Table V, read-out: Binding Ki): 4.3 ± 0.3 nM
Emax (hAPJ receptor [3]; Table V): 75%
EC50 (hAPJ receptor [3]; Table I, read-out: EC50 β-arr2): 199 ± 65 nM
EC50 (hAPJ receptor [3]; Table V, read-out: ß-arr2 EC50): 199 ± 65 nM
